From patent US10364256B2 (GlaxoSmithKline Intellectual Property Development Limited, priority 2015, dated 2019)

Legend:
[1] = target: T1, full length Keap1 protein / full length NRF2 protein (Homo sapiens, UniProt Q14145); assay: NRF2-Keap1 TR-FRET Assay; type: binding; details: 25 nM Keap1-FlagHis and 50 nM biotin-NRF2 added
T1 construct: full length NRF2 protein and full length Keap1 protein (Keap1 exists a dimer) are used; His
Method in brief: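 Displacement of biotinylated full-length NRF2 from full-length Keap1 read by Eu/APC TR-FRET (665/615 nm) after 1 h detection at RT. Compound, 3-fold series, first incubated with Keap1 at 37 °C for 2.25 h, NRF2 then added at 4 °C for 1.25 h; pIC50 by four-parameter equation.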

[2] = target: T1, full length Keap1 protein / full length NRF2 protein; assay: NRF2-Keap1 TR-FRET Low Protein Assay; type: binding; details: 1.25 nM Keap1 FlagHis and 2.5 nM biotin-NRF2 added
Method in brief: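 Flag-tagged full-length Keap1 was preincubated with compound (3-fold series) for 2.25 h at 37 °C in Tris pH 8.0/MgCl2/NaCl/BSA/DTT/CHAPS. Biotin-Avi-NRF2 (added at 2.5 nM) was then bound for 1.25 h at 4 °C. Eu-streptavidin/anti-Flag-APC TR-FRET (665/615 nm) was read after 1 h at RT, and pIC50 came from a four-parameter fit.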

T1 sequence (Q14145 whole entry): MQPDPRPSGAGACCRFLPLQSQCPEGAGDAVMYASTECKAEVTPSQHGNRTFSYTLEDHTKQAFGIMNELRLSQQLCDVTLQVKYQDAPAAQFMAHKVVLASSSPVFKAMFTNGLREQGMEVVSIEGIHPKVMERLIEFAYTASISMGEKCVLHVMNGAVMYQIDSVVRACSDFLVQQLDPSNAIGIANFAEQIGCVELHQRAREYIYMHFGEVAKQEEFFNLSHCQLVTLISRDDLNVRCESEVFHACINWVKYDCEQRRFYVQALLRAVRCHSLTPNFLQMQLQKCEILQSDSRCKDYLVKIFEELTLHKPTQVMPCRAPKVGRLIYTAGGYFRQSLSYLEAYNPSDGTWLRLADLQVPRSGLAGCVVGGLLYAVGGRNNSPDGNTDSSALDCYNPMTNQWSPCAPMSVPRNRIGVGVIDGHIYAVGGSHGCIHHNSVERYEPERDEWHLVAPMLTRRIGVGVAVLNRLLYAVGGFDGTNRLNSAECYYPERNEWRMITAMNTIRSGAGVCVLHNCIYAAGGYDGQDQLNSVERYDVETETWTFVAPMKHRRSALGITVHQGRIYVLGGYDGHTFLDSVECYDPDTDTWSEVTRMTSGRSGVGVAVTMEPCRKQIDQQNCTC

| Molecule | IC50 [1] [nM] | IC50 [2] [nM] |
| --- | --- | --- |
| 1-(3′-((2-chlorocyclohexyl)methoxy)-[1,1′-biphenyl]-3-yl)-5-((1,2-trans)-2-(1-methyl-1H-1,2,3-triazol-4-yl)cyclopropyl)-1H-pyrazole-4-carboxylic acid [Example 186] | 100 to 1000 | 10 to 100 |
| Cn1cc([C@@H]2C[C@H]2c2c(C(=O)O)cnn2-c2cccc(-c3cccc(-n4ncc5c4C(C)(C)CC5)c3)n2)nn1 (racemic) [Example 251, 1-(6-(3-(6,6-Dimethyl-5,6-dihydrocyclopenta[c]pyrazol-1(4H)-yl)phenyl)pyridin-2-yl)-5-(trans-2-(1-methyl-1H-1,2,3-triazol-4-yl)cyclopropyl)-1H-pyrazole-4-carboxylic Acid] | 10 to 100 | < 10 |
| Cn1cc([C@@H]2C[C@H]2c2c(C(=O)O)cnn2-c2cccc(-c3cccc(CN4Cc5ccccc5OC(C)(C)C4)c3)c2)nn1 (racemic) [Example 254, 1-(3′-((2,2-Dimethyl-2,3-dihydrobenzo[f][1,4]oxazepin-4(5H)-yl)methyl)-[1,1′-biphenyl]-3-yl)-5-(trans-2-(1-methyl-1H-1,2,3-triazol-4-yl)cyclopropyl)-1H-pyrazole-4-carboxylic Acid] | 100 to 1000 | 10 to 100 |
| Cn1cc([C@H]2C[C@@H]2c2c(C(=O)O)cnn2-c2cccc(-c3cccc(C(=O)N4CCCCC4)c3F)c2)nn1 (racemic) [Example 258, 1-(2′-Fluoro-3′-(piperidine-1-carbonyl)-[1,1′-biphenyl]-3-yl)-5-(trans-2-(1-methyl-1H-1,2,3-triazol-4-yl)cyclopropyl)-1H-pyrazole-4-carboxylic Acid] | 10 to 100 | < 10 |
| Cn1cc([C@H]2C[C@@H]2c2c(C(=O)O)cnn2-c2cccc(-c3cccc(C(=O)N4CCCC(C)(C)C4)c3F)c2)nn1 (racemic) [Example 259, 1-(2′-Fluoro-3′-(3,3-dimethylpiperidine-1-carbonyl)-[1,1′-biphenyl]-3-yl)-5-(trans-2-(1-methyl-1H-1,2,3-triazol-4-yl)cyclopropyl)-1H-pyrazole-4-carboxylic Acid] | 10 to 100 | < 10 |
| Cn1cc([C@H]2C[C@@H]2c2c(C(=O)O)cnn2-c2cccc(-c3cccc(C(=O)N4CCCCCC4)c3F)c2)nn1 (racemic) [Example 260, 1-(2′-Fluoro-3′-(azepane-1-carbonyl)-[1,1′-biphenyl]-3-yl)-5-(trans-2-(1-methyl-1H-1,2,3-triazol-4-yl)cyclopropyl)-1H-pyrazole-4-carboxylic Acid] | 10 to 100 | < 10 |
| CC1CC(C)CN(C(=O)c2cccc(-c3cccc(-n4ncc(C(=O)O)c4[C@@H]4C[C@H]4c4cn(C)nn4)c3)c2F)C1 (mixture of isomers) [Example 263, 1-(3′-(3,5-Dimethylpiperidine-1-carbonyl)-2′-fluoro-[1,1′-biphenyl]-3-yl)-5-(2-(1-methyl-1H-1,2,3-triazol-4-yl)cyclopropyl)-1H-pyrazole-4-carboxylic Acid] | 10 to 100 | < 10 |
| COCC1CCCCN1C(=O)c1cccc(-c2cccc(-n3ncc(C(=O)O)c3C3C[C@H]3c3cn(C)nn3)c2)c1F (mixture of isomers) [Example 264, 1-(3′-(2-(Methoxymethyl)piperidine-1-carbonyl)-2′-fluoro-[1,1′-biphenyl]-3-yl)-5-(trans-2-(1-methyl-1H-1,2,3-triazol-4-yl)cyclopropyl)-1H-pyrazole-4-carboxylic Acid] | 10 to 100 | < 10 |
| CC(C)CN(C)C(=O)c1cccc(-c2cccc(-n3ncc(C(=O)O)c3[C@@H]3C[C@H]3c3cn(C)nn3)c2)c1F (racemic) [Example 266, 1-(2′-Fluoro-3′(isobutyl(methyl)carbamoyl)-[1,1′-biphenyl]-3-yl)-5-(trans-2-(1-methyl-1H-1,2,3-triazol-4-yl)cyclopropyl)-1H-pyrazole-4-carboxylic Acid] | 10 to 100 | < 10 |
